Tests used:
[1] = system: M. furfur; assay: M. furfur growth after 20 min treatment, then 409 nm light or dark (Table 2); type: cell-based, Malassezia furfur
Procedure: Cells are grown in the medium of choice, generally one requiring respiration. In the case of Malassezia furfur that medium is modified Dixon medium (mDixon) (per one liter: 36 g malt extract (Difco 0186-17), 20 g ox bile (provided by American Laboratories, Inc., of Omaha, Nebraska, as Lot No. 03130792), 10 ml Tween 40 (Aldrich 27435-6), 6 g peptone (Difco 0118-17), 2 ml oleic acid (Baker 2114-01), and 2 ml glycerol (Sigma G-7893)). [Candida and YPG, Saccharomyces and YNB (without amino acids) to which we added 40 μg/ml each of uracil, histidine, and methionine plus 130 μg/ml leucine and 2% ethanol and 0.1% yeast extract.] Conventional medium may also be used for other microbials. Starting cultures are prepared by diluting a fresh overnight culture that is out of log phase 1:100 and incubating with shaking at 31° C. in a 250 mL shake flask (Corning, 431144) with 20 mL medium shaking at 200-250 rpm for about 3 hours to ensure the cells had returned to growth phase. At this time, the test agent is added to the flasks to afford the final concentration for testing. The cells are cultured for 1 hour with the test agent. At this time, the cells typically have an OD at 600 nm in the range of 0.25 to 0.8. Generally, we isolate 2.5 OD*mLs of cells calculated as desired OD*mLs divided by the OD600 of the cells. These media samples are centrifuged (Beckman Coulter Allegra™ 6KR centrifuge) 10 minutes at RT at 3200 rpm to pellet the cells. The supernatant is poured off and the tubes are set upside down on a folded paper towel to drain off the remains of media. Two and one half milliliters of PBS (Gibco, pH 7.4, without magnesium chloride or calcium chloride, 14190-144) is added and the cells resuspended. One mL of cells is transferred to each of two 12-well plates (Falcon, polystyrene, 353043). One plate is stored in the dark and the other is exposed to the light with the plate cover on the plate. […] When the light exposure is completed, the samples are mixed by slowly vortexing or pipetting and 0.65 mL of each sample is transferred to 13 mL of medium for overnight growth at 31° C. with shaking. The following morning, typically 18 hours later, the ODs at 600 nm are determined. Successful materials are those that show at least a 50% reduction in growth after light exposure relative to a dark sample.
M. furfur is incubated for twenty minutes with the indicated treatment. A cell pellet is collected after centrifugation so that most of the anti-fungal materials is expected to have been removed. The cell pellet is suspended in PBS and either treated with light (409 nm, 1100 foot candles) for ten minutes or stored in the dark for ten minutes. Samples are then diluted into mDixon with subsequent growth indicated by OD 600 nm.

[2] = system: protoporphyrin IX (PPIX); assay: Protoporphyrin IX levels in treated M. furfur cells by HPLC; type: cell-based; conditions: increasing concentrations
Text: PPIX absorb light in the 400 nm range, and when light is absorbed, PPIX transitions to an excited triplet state that can react with triplet oxygen to produce singlet oxygen or the excited porphyrin can generate ROS through single electron processes. These reactive species result in a loss of cell viability.
M. furfur cells are exposed to other antifungals that are not considered chelators (i.e. selenium sulfide (SeSx), Sulfur, Climbazole, and Terbinafine). After treatment, cells are then exposed to light, or not exposed to light. Both OD are measured to measure growth and PPIX levels are measured.

[3] = system: M. furfur CBS 7982; assay: Fractional Inhibitor Concentration (FIC): antimicrobial plus 409 nm light on M. furfur growth; type: cell-based, Malassezia furfur; conditions: for growth, OD 600 nm: 16 h growth
Procedure: Fractional Inhibitor Concentration (FIC) is a conventional methodology for evaluating the interaction of two antimicrobial chemicals. […] In an embodiment of the present invention, FIC is used to determine combinatorial effects of one chemical and exposure to light on Malassezia growth and/or viability in an in vitro system.
• 1. M. furfur CBS 7982 cells are exposed to a varying concentrations of an antimicrobial active (e.g. ZPT, Piroctone Olamine) for a specified amount of time (e.g. 2 min to 3 hours). • 2. After exposure, the antimicrobial is washed away by centrifugation of the cells and a series of washes • 3. Cells are then exposed to light at a wavelength of 409 nm for varying lengths of time • 4. Cells are then allowed to grow up overnight (e.g. 17 h) to determine the impact of the treatment on viability and growth of the organism by measuring OD600 II. Data Analysis: • 1. Inhibition of growth is determined to be where the OD value obtained is <=50% of the untreated control • 2. The lowest concentration value of the antimicrobial agent which inhibits growth is determined • 3. Likewise, the shortest light exposure time is determined that gives growth inhibition • 4. Finally, the combination of the lowest concentration of the antimicrobial and the shortest light exposure time that provides growth inhibition is determined • 5. The FIC value is determined using the calculation below:
[formula] • 6. The combinatorial effect of the antimicrobial and light is classified according to the chart below: […]
M. furfur is incubated for one hour with varying concentrations of Piroctone Olamine. Cell pellets are collected by centrifugation so that most of the anti-fungal material has been removed. The cell pellet is suspended in PBS and 500 uL samples are distributed to four 12 well plates and treated with light (409 nm) for 1, 10 or 60 minutes or stored in the dark. Samples are then diluted into mDixon, and incubated for 16 h with subsequent growth measured by OD 600 nm.
M. furfur is incubated for one hour with varying concentrations of Hinokitiol. Cell pellets are collected by centrifugation so that most of the anti-fungal material has been removed. The cell pellet is suspended in PBS and 500 uL samples are distributed to four 12 well plates and treated with light (409 nm) for 1, 10 or 60 minutes or stored in the dark. Samples are then diluted into mDixon, and incubated for 27 h with subsequent growth measured by OD 600 nm. […]

Q: What does the source list for Cc1cc(CC(C)CC(C)(C)C)n(O)c(=O)c1.NCCO (stereo not drawn) [Piroctone Olamine, 1-Hydroxy-4-methyl-6-(2,4,4-trimethylpentyl)-2-pyridone monoethanolamine salt]?
A: growth, OD 600 nm ([1]; 8 ppm 20 min, Dark 10 min): 7.82; growth, OD 600 nm ([1]; 8 ppm 20 min, Light 409 nm, 1100 foot candles, 10 min): 7.35; growth, OD 600 nm ([1]; 16 ppm 20 min, Dark 10 min): 7.90; growth, OD 600 nm ([1]; 16 ppm 20 min, Light 409 nm, 1100 foot candles, 10 min): 0.07; growth, OD 600 nm ([1]; 24 ppm 20 min, Dark 10 min): 7.07; growth, OD 600 nm ([1]; 24 ppm 20 min, Light 409 nm, 1100 foot candles, 10 min): 0.03; growth, OD 600 nm ([1]; 32 ppm 20 min, Dark 10 min): 6.76; growth, OD 600 nm ([1]; 32 ppm 20 min, Light 409 nm, 1100 foot candles, 10 min): 0.02; growth, OD 600 nm ([1]; 48 ppm 20 min, Dark 10 min): 7.21; growth, OD 600 nm ([1]; 48 ppm 20 min, Light 409 nm, 1100 foot candles, 10 min): 0.03; growth, OD 600 nm ([1]; 64 ppm 20 min, Dark 10 min): 7.23; growth, OD 600 nm ([1]; 64 ppm 20 min, Light 409 nm, 1100 foot candles, 10 min): 0.02; growth inhibition ([1]; prior treatment, with the addition of light): considerable growth inhibition; PPIX levels [2]: increased levels of PPIX; shortest light exposure time when applied in combination to give growth inhibition ([3]; 409 nm light, with the lowest inhibiting concentration): 1 min; growth, OD 600 nm ([3]; Piroctone Olamine 4 ppm 1 h, 409 nm light 0 min): 3.6; growth, OD 600 nm ([3]; Piroctone Olamine 4 ppm 1 h, 409 nm light 1 min): 4.1; growth, OD 600 nm ([3]; Piroctone Olamine 4 ppm 1 h, 409 nm light 10 min): 3.9; growth, OD 600 nm ([3]; Piroctone Olamine 4 ppm 1 h, 409 nm light 60 min): 3.7; growth, OD 600 nm ([3]; Piroctone Olamine 8 ppm 1 h, 409 nm light 0 min): 3.9; growth, OD 600 nm ([3]; Piroctone Olamine 8 ppm 1 h, 409 nm light 1 min): 0.1; growth, OD 600 nm ([3]; Piroctone Olamine 8 ppm 1 h, 409 nm light 10 min): 0.0; growth, OD 600 nm ([3]; Piroctone Olamine 8 ppm 1 h, 409 nm light 60 min): 0.0; growth, OD 600 nm ([3]; Piroctone Olamine 16 ppm 1 h, 409 nm light 0 min): 2.6; growth, OD 600 nm ([3]; Piroctone Olamine 16 ppm 1 h, 409 nm light 1 min): 0.1; growth, OD 600 nm ([3]; Piroctone Olamine 16 ppm 1 h, 409 nm light 10 min): 0.0; growth, OD 600 nm ([3]; Piroctone Olamine 16 ppm 1 h, 409 nm light 60 min): 0.0; growth, OD 600 nm ([3]; Piroctone Olamine 32 ppm 1 h, 409 nm light 0 min): 2.1; growth, OD 600 nm ([3]; Piroctone Olamine 32 ppm 1 h, 409 nm light 1 min): 0.2; growth, OD 600 nm ([3]; Piroctone Olamine 32 ppm 1 h, 409 nm light 10 min): 0.0; growth, OD 600 nm ([3]; Piroctone Olamine 32 ppm 1 h, 409 nm light 60 min): 0.0; growth, OD 600 nm ([3]; Piroctone Olamine 64 ppm 1 h, 409 nm light 0 min): 1.3; growth, OD 600 nm ([3]; Piroctone Olamine 64 ppm 1 h, 409 nm light 1 min): 0.1; growth, OD 600 nm ([3]; Piroctone Olamine 64 ppm 1 h, 409 nm light 10 min): 0.0; growth, OD 600 nm ([3]; Piroctone Olamine 64 ppm 1 h, 409 nm light 60 min): 0.0; lowest concentration to give growth inhibition ([3]; antimicrobial alone, no light, inhibition = OD <=50% of untreated control): 64 ppm; FIC value ([3]; antimicrobial plus 409 nm light): 0.14; Combinatorial Effect ([3]; antimicrobial plus 409 nm light, classified by FIC value): synergistic; lowest concentration when applied in combination with light to give growth inhibition ([3]; with 409 nm light, inhibition = OD <=50% of untreated control): 8 ppm

— patent US11771765B2, “Light augmented treatment method” (The Procter & Gamble Company, priority 2019, dated 2023)
